# According to ChEMBL document CHEMBL1126494, “New potent angiotensin II receptor antagonists containing phenylthiophenes and phenylfurans in place of the biphenyl moiety” (Bioorg Med Chem Lett, 1993):
# Test: Compound was tested for inhibition of Angiotensin II receptor in rabbit aorta binding assay
row,IC50,Structure (SMILES)
1,23 nM,CCc1nc2c(C)cc(C)nc2n1Cc1ccc(-c2ccoc2-c2nn[nH]n2)cc1
2,2.4 nM,CCc1nc2c(C)cc(C)nc2n1Cc1ccc(-c2cscc2-c2nn[nH]n2)cc1
3,1000 nM,CCc1nc2c(C)cc(C)nc2n1Cc1ccc(-c2ccccc2-c2nn[nH]n2)s1
4,2.3 nM,CCc1nc2c(C)cc(C)nc2n1Cc1ccc(-c2ccsc2-c2nn[nH]n2)cc1
